Source: patent US20220047475A1, “COSMETIC USE OF A SHORT CHAIN FATTY ACID (SCFA) FOR PREVENTING AND/OR TREATING DRY SKIN AND/OR AGED SKIN” (L'OREAL, priority 2018, published 2022)

Legend:
[1] = tested on: sebocytes; assay: High content screening (HCS) imaging of sebocytes: lipid droplets (BODIPY) and nuclei (Hoechst); type: cell-based; conditions: for Nuclear count / Size of nucleus: 5 mmol.L^−1, mean ± SD, holocrine secretion
Procedure: Cell culture. […] D2650) in liquid nitrogen have been thawed in a water bath at 37° C. and directly washed with prewarmed […] culture media (Table 1). 3T3m cells were plated at 40.10^3 cells·cm^2 in a 175 cm^2 flask (Thermoscientific Ref. 159910) and incubated 2 hours at 37° C., 5% CO2. […] Vials containing sebocytes were thawed in a water bath at 37° C. and directly washed with prewarmed […] culture media. Sebocytes were plated at 2600 cells·cm^2 in a 175 cm^2 flask containing attached 3T3m cells and incubated (37° C., 5% CO2) to reach 70-80% confluence. After 5 days, cells were harvested using trypsin (Gibco Ref. 25300) and transferred in 96 well plates (10×10^3 cells per well, Greiner Bio-one Ref. 655956) and incubated (37° C., 5% CO2). Cell treatment. […] For valeric acid, the pH in modified cell media was neutralized with NaOH (Sodium hydroxide, Sigma 283060). […]) were both dissolved in pure ethanol (Merck Ref. 1.00983) for a final concentration per well of 60 μmar'. For these treatments, modified cell media supplemented with pure ethanol was used as controls. Supernatants (25%) sampled in exponential and stationary phases were neutralized with NaOH and were controlled with modified cell media supplemented at 25% with pure bacterial culture media. All conditions were repeated 8 times (n=8) for SOFA experiments and 24 times (n=24) for supernatants assays. Microplates were incubated 48 hours (37° C., 5% CO2) and directly sampled and/or stained and analyzed. Cell staining. […] Lipid droplets were stained with BODIPY (Invitrogen Ref. […]) diluted in DPBS solution supplemented with delipidated BSA (Bovin Serum Albumin, Sigma Ref. A7906). Nuclei were stained with Hoechst (Invitrogen, Ref. H3570) diluted in DPBS solution. High content imaging, images analysis and statistics. […] Images were analyzed using the MetaXpress image based module Transfluor (Molecular Devices). Results were exported into GraphPad Prism (version 7.01) to determine statistical significance using One-way ANOVA and expressed on bar graph as mean±SD or on box plot±min and max. *: […] Sebocytes were seeded in 96 well plates, followed by treatment with SOFA and/or LCFAs with at least 8 replicate wells (1 column) for each condition.

[2] = tested on: sebocytes; assay: Quantification of secreted triglycerides (TGs) in sebocyte supernatants; type: cell-based; conditions: for % of excreted TGs (compared to control) / FC (compared to control) of excreted TGs: 5 mmol.L^−1, 24 h
Procedure: Cell culture. Vials containing 3T3 mitomycine treated cells stored in 20% DMSO (Dimethylsulf oxide, Sigma Ref. D2650) in liquid nitrogen have been thawed in a water bath at 37° C. and directly washed with prewarmed G7F culture media (Table 1). 3T3m cells were plated at 40.10^3 cells·cm^2 in a 175 cm^2 flask (Thermoscientific Ref. 159910) and incubated 2 hours at 37° C., 5% CO2. Sebocytes were obtained from primary cell line and stored in 10% DMSO in liquid nitrogen. Vials containing sebocytes were thawed in a water bath at 37° C. and directly washed with prewarmed G7F culture media. Sebocytes were plated at 2600 cells·cm^2 in a 175 cm^2 flask containing attached 3T3m cells and incubated (37° C., 5% CO2) to reach 70-80% confluence. After 5 days, cells were harvested using trypsin (Gibco Ref. 25300) and transferred in 96 well plates (10×10^3 cells per well, Greiner Bio-one Ref. 655956) and incubated (37° C., 5% CO2).
Cell treatment. After 24 hours, cell media was replaced by modified cell media (G7F w/o hydrocortisone and w/o antibiotic-antimycotic) supplemented with: modified cell media (control), sodium acetate (CH3COONa, Sigma Ref. 32319), sodium propionate (CH3CH2COONa, Sigma Ref. P1880), sodium butyrate (CH3(CH2)2COONa Sigma Ref. 303410), valeric acid (CH3(CH2)3COOH, Sigma Ref. 75054). For valeric acid, the pH in modified cell media was neutralized with NaOH (Sodium hydroxide, Sigma 283060). Palmitic acid (C16:0, Cayman Ref. 10006627) and linoleic acid (C18:2 cis 9.12, Sigma Ref. L1376) were both dissolved in pure ethanol (Merck Ref. 1.00983) for a final concentration per well of 60 μmar′. For these treatments, modified cell media supplemented with pure ethanol was used as controls. Supernatants (25%) sampled in exponential and stationary phases were neutralized with NaOH and were controlled with modified cell media supplemented at 25% with pure bacterial culture media. All conditions were repeated 8 times (n=8) for SOFA experiments and 24 times (n=24) for supernatants assays. […]
Triglycerides quantification. Assays have been realized using Triglycerides Assays Kit—Quantification (Abcam, ref. Ab65336) following manufacturer's instructions. Each supernatant of the 8 replicates have been sampled (50 μl) and analyzed following the colorimetric detection method of the kit (OD 570 nm) using a plate reader Infinite 200PRO (Tecan).
Holocrine secretion is the final step of sebogenic process wherein the mature cells burst to release the lipid contents. Promotion of holocrine secretion by SOFA was based on observations and interpretations of a lower number of cells in association with an enlargement of nuclear area.

[3] = sebocytes, 2.5, 5, 10 and 15 mmol·l^−1

`CCC(=O)[O-].[Na+]` [Proprionate, sodium propionate] was tested, and the “nuclear count per well” value [1, 3] was “decrease in the nuclear count per well”, the “size of LDs compared to controls” value [1, 3] was “LDs increased in size as the concentration of propionate increased” and the “number of LDs per cell” value ([1]; sebocytes, pure propionate 5 mmol·l^−1) was “about 12 LDs/cell”. For the same molecule, the “% of excreted TGs (compared to control)” value ([2]; listed as P5) was “+20%” and the “FC (compared to control) of excreted TGs” value ([2]; listed as P5) was about 1.2.
For `CC(=O)[O-].[Na+]` [Acetate, sodium acetate, reference compound], the “de novo lipid induction compared to the control” value ([1]; sebocytes, 5 mmol.L^−1) was “significant”, the Nuclear count ([1]; sebocytes) was 18574 ± 2148 = and the Size of nucleus ([1]; sebocytes) was 215 ± 5 =. The Nuclear count ([1]; sebocytes, listed as acetate) was “no effect”, the Size of nucleus ([1]; sebocytes, listed as acetate) was “no effect” and the “% of excreted TGs (compared to control)” value [2] was −10% =. For the same molecule, the “FC (compared to control) of excreted TGs” value [2] was “FC = 0.90, =”.
In the case of `CCCC(=O)[O-].[Na+]` [butyrate, sodium butyrate], the “nuclear count per well” value [1, 3] is reported as “decrease in the nuclear count per well” and the “FC of TGs excreted” value ([2]; 15 mmol·l−1, 24 h) is reported as “FC of TGs in B15>FC of TGs in B5”.
In the case of `CCCCC(=O)O` [valerate, valeric acid], the “nuclear count per well” value [1, 3] is reported as “decrease in the nuclear count per well”, the “% of TGs excreted” value ([2]; 15 mmol·l−1, 24 h) is reported as “+100%” and the “FC of TGs excreted” value ([2]; 15 mmol·l−1, 24 h) is reported as about 2.
